Test results published in patent publication US11629154B2, “Tetrahydropyranooxazine derivatives having selective BACE1 inhibitory activity” (SHIONOGI & CO., LTD., priority 2018, dated 2023).
pIC50: −log10 of the molar value.

Legend:
[1] = test system: Abeta 1-42 in cerebrospinal fluid (CSF); assay: Pharmacology in the beagle dog: beta-amyloid profile in CSF; format: in vivo
Procedure: Test compounds were tested to evaluate the effect on the beta-amyloid profile in cerebrospinal fluid (CSF) of dogs after a single dose, in combination with pharmacokinetic (PK) follow up and limited safety evaluation.
In the case of compounds shown below, two or 4 beagle dogs (1 or 2 male, 1 or 2 female) were dosed with vehicle (1 mL/kg of an aqueous solution of 20% cyclodextrin) and 4 beagle dogs (2 males and 2 females) per dose group were dosed with test compound at the doses indicated in Table 20 in an aqueous 20% cyclodextrin solution with a concentration in mg/mL identical to the dose given in mg/kg) on an empty stomach.
CSF was taken in conscious animals directly from the lateral ventricle via a cannula which was screwed in the skull and covered with subcutaneous tissue and skin, before and at 4, 8, 25 and 49 hours after dosing. Eight hours after dosing the animals got access to their regular meal for 30 minutes. Blood was taken for PK follow up (0.5, 1, 2, 4, 8, 25 and 49 hours) and serum samples for biochemistry were taken before and at 8 and 25h after dosing. The CSF samples were used for measurement of Abeta 1-37, Abeta 1-38, Abeta 1-40 and Abeta 1-42.

[2] = target: P-gp (MDR1 expressing LLC-PK1 cells) (Homo sapiens (Human), UniProt P08183); assay: P-gp substrate test; format: in vitro ADME; conditions: MDR1/LLC-PK1 versus LLC-PK1
P-gp (MDR1 expressing LLC-PK1 cells), sequence (P08183 whole entry): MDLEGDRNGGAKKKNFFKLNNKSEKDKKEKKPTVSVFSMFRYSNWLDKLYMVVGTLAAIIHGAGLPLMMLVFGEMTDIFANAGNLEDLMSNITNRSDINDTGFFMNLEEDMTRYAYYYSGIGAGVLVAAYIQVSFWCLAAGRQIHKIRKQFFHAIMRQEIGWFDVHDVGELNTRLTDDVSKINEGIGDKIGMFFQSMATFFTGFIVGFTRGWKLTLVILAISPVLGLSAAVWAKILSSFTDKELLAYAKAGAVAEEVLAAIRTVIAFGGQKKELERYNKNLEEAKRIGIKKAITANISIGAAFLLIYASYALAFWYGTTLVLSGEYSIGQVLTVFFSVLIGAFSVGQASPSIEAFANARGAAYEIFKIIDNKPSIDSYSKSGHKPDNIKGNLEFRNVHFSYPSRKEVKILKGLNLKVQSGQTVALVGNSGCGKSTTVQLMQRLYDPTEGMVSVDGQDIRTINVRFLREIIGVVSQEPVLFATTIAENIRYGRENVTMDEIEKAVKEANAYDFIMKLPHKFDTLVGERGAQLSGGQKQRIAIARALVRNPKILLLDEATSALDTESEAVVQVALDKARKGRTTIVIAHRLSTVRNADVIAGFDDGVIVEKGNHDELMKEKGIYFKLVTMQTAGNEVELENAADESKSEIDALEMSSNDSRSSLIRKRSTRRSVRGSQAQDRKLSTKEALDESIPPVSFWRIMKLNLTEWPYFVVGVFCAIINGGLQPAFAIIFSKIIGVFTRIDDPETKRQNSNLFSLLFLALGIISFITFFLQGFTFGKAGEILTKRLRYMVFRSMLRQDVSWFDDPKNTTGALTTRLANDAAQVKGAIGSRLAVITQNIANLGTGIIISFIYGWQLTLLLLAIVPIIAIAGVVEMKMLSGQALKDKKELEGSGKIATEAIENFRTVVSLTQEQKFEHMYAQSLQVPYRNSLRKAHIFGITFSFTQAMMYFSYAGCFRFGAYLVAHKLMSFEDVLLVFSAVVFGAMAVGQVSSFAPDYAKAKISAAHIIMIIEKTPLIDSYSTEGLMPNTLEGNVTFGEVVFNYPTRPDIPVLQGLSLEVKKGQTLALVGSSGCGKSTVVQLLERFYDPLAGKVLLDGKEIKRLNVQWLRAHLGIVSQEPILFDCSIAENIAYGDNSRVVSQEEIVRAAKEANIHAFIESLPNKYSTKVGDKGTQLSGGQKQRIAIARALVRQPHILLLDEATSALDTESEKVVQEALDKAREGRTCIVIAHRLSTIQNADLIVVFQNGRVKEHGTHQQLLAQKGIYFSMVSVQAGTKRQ
Procedure: 1. MDR1 expressing LLC-PK1 cells and its parent cells were routinely cultured in Medium A (Medium 199 (Invitrogen) supplemented with 10% FBS (Invitrogen), gentamycin (0.05 mg/mL, Invitrogen) and hygromycin B (100 μg/mL, Invitrogen)) at 37° C. under 5% CO2/[…] gasses. For the transport experiments, these cells were seeded on Transwell (Registered trademark) insert (96-well, pore size: 0.4 μm, Coaster) at a density of 1.4×10^4 cells/insert and added Medium B (Medium 199 supplemented with 10% FBS and gentamycin at 0.05 mg/mL) to the feeder tray. These cells were incubated in a CO2 incubator (5% CO2/[…] gasses, 37° C.) and replace apical and basolateral culture medium every 48-72 hr after seeding. These cells were used between 4 and 6 days after seeding. 2. The medium in the culture insert seeded with MDR1 expressing cells or parent cells were removed by aspiration and rinsed by HBSS. The apical side (140 μL) or basolateral side (175 μL) was replaced with transport buffer containing reference substrates and the present invention and then an aliquot (50 μL) of transport buffer in the donor side was collected to estimate initial concentration of reference substrate and the present invention. After incubation for designed time at 37° C., an aliquot (50 μL) of transport buffer in the donor and receiver side were collected. Assay was performed by duplicate or triplicate. 3. Reference substrate and the present invention in the aliquot was quantified by LC/MS/MS.
Permeated amounts across monolayers of MDR1 expressing and parent cells were determined, and permeation coefficients (Pe) were calculated using Excel 2003 from the following equitation: Pe (cm/sec)=Permeated amount (pmol)/area of cell membrane (cm^2)/initial concentration (nM)/incubation time (sec) Where, permeated amount was calculated from permeation concentration (nM, concentration of the receiver side) of the substance after incubation for the defined time (sec) multiplied by volume (mL) and area of cell membrane was used 0.1433 (cm2).
The efflux ratio was calculated using the following equation: Efflux Ratio=Basolateral-to-Apical Pe/Apical-to-Basolateral Pe The net flux was calculated using the following equation: Net flux=Efflux Ratio in MDR1 expressing cells/Efflux Ratio in parent cells

Metabolic stability test = format: in vitro ADME; conditions: human liver microsomes, 37° C., NADPH
Procedure: Using a commercially available pooled human liver microsomes, a compound of the present invention was reacted for a constant time, a remaining rate was calculated by comparing a reacted sample and an unreacted sample, thereby, a degree of metabolism in liver was assessed.
A reaction was performed (oxidative reaction) at 37° C. for 0 minute or 30 minutes in the presence of 1 mmol/L NADPH in 0.2 mL of a buffer (50 mmol/L Tris-HCl pH 7.4, 150 mmol/L potassium chloride, 10 mmol/L magnesium chloride) containing 0.5 mg protein/mL of human liver microsomes. After the reaction, 50 μL of the reaction solution was added to 100 μL of a methanol/acetonitrile=1/1 (v/v), mixed and centrifuged at 3000 rpm for 15 minutes. The compound of the present invention in the supernatant was quantified by LC/MS/MS or solid phase extraction (SPE)MS, and a remaining amount of the compound of the present invention after the reaction was calculated, letting a compound amount at 0 minute reaction time to be 100%.

[3] = target: recombinant BACE2 protein (Homo sapiens (Human), UniProt Q9Y5Z0); assay: BACE2 biochemical FRET based assay; conditions: pH 5.0
recombinant BACE2 protein, sequence (Q9Y5Z0 63-518): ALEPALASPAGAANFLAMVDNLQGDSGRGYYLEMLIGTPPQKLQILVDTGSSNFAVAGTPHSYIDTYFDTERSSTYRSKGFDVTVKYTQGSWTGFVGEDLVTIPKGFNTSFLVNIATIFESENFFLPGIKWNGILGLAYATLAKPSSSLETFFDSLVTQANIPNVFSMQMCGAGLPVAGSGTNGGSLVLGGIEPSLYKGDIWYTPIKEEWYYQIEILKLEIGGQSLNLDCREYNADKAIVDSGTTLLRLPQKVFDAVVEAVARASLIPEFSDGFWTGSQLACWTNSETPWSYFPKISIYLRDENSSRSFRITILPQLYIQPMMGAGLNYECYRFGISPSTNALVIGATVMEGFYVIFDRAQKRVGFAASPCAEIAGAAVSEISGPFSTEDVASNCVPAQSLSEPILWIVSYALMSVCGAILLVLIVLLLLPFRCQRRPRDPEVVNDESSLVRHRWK
From the text: (2) BACE2 Biochemical FRET Based Assay
This assay is a Fluorescence Resonance Energy Transfer Assay (FRET) based assay. The substrate for this assay contains the ‘Swedish’ Lys-Met/Asn-Leu mutation of the amyloid precursor protein (APP) beta-secretase cleavage site. This substrate also contains two fluorophores: (7-methoxycoumarin-4-yl) acetic acid (Mca) is a fluorescent donor with excitation wavelength at 320 nm and emission at 405 nm and 2,4-dinitrophenol (Dnp) is a proprietary quencher acceptor. […] Upon cleavage by the beta-secretase, the fluorophore Mca is separated from the quenching group Dnp, restoring the full fluorescence yield of the donor. The increase in fluorescence is linearly related to the rate of proteolysis.
Briefly in a 384-well format recombinant BACE2 protein in a final concentration of 0.4 μg/mL was incubated for 450 minutes at room temperature with 10 μM substrate in incubation buffer (final concentrations: 33.3 mM Citrate buffer pH 5.0, 0.033% PEG, 2% DMSO) in the absence or presence of compound. Next the amount of proteolysis was directly measured by fluorescence measurement at T=0 and T=450 (excitation at 320 nm and emission at 405 nm). Results were expressed in RFU (Relative Fluorescence Units), as difference between T450 and TO.
A best-fit curve was fitted by a minimum sum of squares method to the plot of % Controlmin versus compound concentration. From this an IC50 value (inhibitory concentration causing 50% inhibition of activity) can be obtained.
LC=Median of the low control values
=Low control: Reaction without enzyme
HC=Median of the High control values

| SMILES | % Decrease in Abeta 1-42 at 8 h post dosing compared to own baseline ([1]; single dose 0.31 mg/kg) | % Decrease in Abeta 1-42 at 24 h^(a) or 25 h^(b) post dosing compared to own baseline ([1]; single dose 0.31 mg/kg) | % Decrease in Abeta 1-42 at 8 h post dosing compared to own baseline ([1]; single dose 0.63 mg/kg) | % Decrease in Abeta 1-42 at 24 h^(a) or 25 h^(b) post dosing compared to own baseline ([1]; single dose 0.63 mg/kg) | % Decrease in Abeta 1-42 at 8 h post dosing compared to own baseline ([1]; single dose 3.75 mg/kg) | % Decrease in Abeta 1-42 at 24 h^(a) or 25 h^(b) post dosing compared to own baseline ([1]; single dose 3.75 mg/kg) | % Decrease in Abeta 1-42 at 49 h post dosing compared to own baseline ([1]; single dose 3.75 mg/kg) | P-gp ER ratio [2] | Remaining rate(%) at 30 min (Metabolic stability test) | pIC50 [3] | % Decrease in Abeta 1-42 at 49 h post dosing compared to own baseline ([1]; single dose 0.31 mg/kg) | % Decrease in Abeta 1-42 at 8 h post dosing compared to own baseline ([1]; single dose 2.5 mg/kg) | % Decrease in Abeta 1-42 at 24 h^(a) or 25 h^(b) post dosing compared to own baseline ([1]; single dose 2.5 mg/kg) | % Decrease in Abeta 1-42 at 49 h post dosing compared to own baseline ([1]; single dose 2.5 mg/kg) | % Decrease in Abeta 1-42 at 49 h post dosing compared to own baseline ([1]; single dose 0.63 mg/kg) | % Decrease in Abeta 1-42 at 8 h post dosing compared to own baseline ([1]; single dose 1.25 mg/kg) | % Decrease in Abeta 1-42 at 24 h^(a) or 25 h^(b) post dosing compared to own baseline ([1]; single dose 1.25 mg/kg) | % Decrease in Abeta 1-42 at 49 h post dosing compared to own baseline ([1]; single dose 1.25 mg/kg) |
| --- | --- | --- | --- | --- | --- | --- | --- | --- | --- | --- | --- | --- | --- | --- | --- | --- | --- | --- |
| NC1=N[C@](CF)(c2cc(NC(=O)c3cnc(OCF)cn3)ccc2F)[C@H]2COCC[C@H]2O1 [Compound I-007] | −61% | −23% | −69% | −48% | −64% | −82% | −40% | 5.5 | 107% | 6.52 |  |  |  |  |  |  |  |  |
| C[C@@H]1C[C@H]2OC(N)=N[C@](CF)(c3cc(NC(=O)c4cnc(OCF)cn4)ccc3F)[C@H]2CO1 [Compound I-008] | −57% | −28% | −58% | −48% |  |  |  | 6.2 | 94.4% | 6.19 | −25% | −81% | −76% | −49% |  |  |  |  |
| NC1=N[C@](CF)(c2cc(NC(=O)c3cnc(-n4cncn4)cn3)ccc2F)[C@H]2COCC[C@H]2O1 [Compound I-047] |  |  |  |  |  |  |  | 4.7 | 61.6% | 5.93 |  |  |  |  |  |  |  |  |
| C[C@@H]1C[C@H]2OC(N)=N[C@](CF)(c3cc(NC(=O)c4cnc(OCF)cn4)ccc3Cl)[C@H]2CO1 [Compound I-065] |  |  | −49% | −52% |  |  |  | 5.7 | 79.6% | 6.47 |  |  |  |  | −20% | −59% | −56% | −34% |
| COc1cnc(C(=O)Nc2ccc(F)c([C@@]3(CF)N=C(N)O[C@@H]4CCOC[C@@H]43)c2)cn1 [Compound I-067] | −36% |  | −64% |  |  |  |  | 6.1 | 91.4% | 6.57 |  |  |  |  |  |  |  |  |
| NC1=N[C@](CF)(c2cc(NC(=O)c3cnc(OC(F)F)cn3)ccc2F)[C@H]2COCC[C@H]2O1 [Compound I-076] | −68% |  | −65% |  |  |  |  | 6.2 | 91.7% | 6.75 |  |  |  |  |  |  |  |  |
| NC1=N[C@](CF)(c2cc(NC(=O)c3ccc(C(F)(F)F)cn3)ccc2F)[C@H]2COCC[C@H]2O1 [Compound I-105] |  |  |  |  |  |  |  | 7.1 | 87.9% | 6.52 |  |  |  |  |  |  |  |  |
